Test results: the NIST ThermoML archive (doi:10.1016/j.jct.2007.11.010)
± gives the expanded uncertainty stated by the source.

Assay: xn = mol fraction of the nth substance listed
Details: 101 kPa, Liquid

OCCN1CCOCC1 [4-morpholineethanol] + CCCCO
mass density [kg/m3]
Details | 293.15 K | 298.15 K | 303.15 K | 313.15 K | 323.15 K
x1 = 0.0652 | 832.8 ± 0.81 | 829 ± 0.82 | 825.1 ± 0.83 | 817.44 ± 0.86 | 809.9 ± 0.88
x1 = 0.1125 | 849.1 ± 0.76 | 845.21 ± 0.78 | 841.24 ± 0.79 | 833.54 ± 0.81 | 826.03 ± 0.83
x1 = 0.1865 | 873.74 ± 0.7 | 869.7 ± 0.71 | 865.64 ± 0.72 | 857.88 ± 0.75 | 850.45 ± 0.77
x1 = 0.2436 | 891.83 ± 0.65 | 887.69 ± 0.66 | 883.56 ± 0.68 | 875.77 ± 0.7 | 868.41 ± 0.72
x1 = 0.2865 | 905.09 ± 0.62 | 900.87 ± 0.63 | 896.69 ± 0.64 | 888.88 ± 0.67 | 881.58 ± 0.69
x1 = 0.3275 | 917.49 ± 0.59 | 913.2 ± 0.6 | 908.97 ± 0.61 | 901.14 ± 0.63 | 893.89 ± 0.66
x1 = 0.3852 | 934.26 ± 0.55 | 929.86 ± 0.56 | 925.57 ± 0.57 | 917.73 ± 0.6 | 910.57 ± 0.62
x1 = 0.4259 | 945.77 ± 0.52 | 941.31 ± 0.53 | 936.97 ± 0.55 | 929.12 ± 0.57 | 922.02 ± 0.59
x1 = 0.4784 | 960.02 ± 0.49 | 955.47 ± 0.5 | 951.09 ± 0.51 | 943.23 ± 0.54 | 936.22 ± 0.56
x1 = 0.5248 | 972.29 ± 0.46 | 967.67 ± 0.47 | 963.24 ± 0.48 | 955.38 ± 0.51 | 948.45 ± 0.53
x1 = 0.5649 | 982.5 ± 0.43 | 977.82 ± 0.45 | 973.35 ± 0.46 | 965.5 ± 0.48 | 958.65 ± 0.5
x1 = 0.6126 | 994.28 ± 0.4 | 989.52 ± 0.42 | 985.02 ± 0.43 | 977.16 ± 0.45 | 970.4 ± 0.47
x1 = 0.6539 | 1004.15 ± 0.41 | 999.34 ± 0.39 | 994.8 ± 0.41 | 986.96 ± 0.43 | 980.27 ± 0.45
x1 = 0.6898 | 1012.51 ± 0.44 | 1007.64 ± 0.42 | 1003.08 ± 0.41 | 995.25 ± 0.41 | 988.63 ± 0.43
x1 = 0.7353 | 1022.74 ± 0.48 | 1017.81 ± 0.46 | 1013.21 ± 0.45 | 1005.4 ± 0.42 | 998.88 ± 0.4
x1 = 0.7962 | 1035.87 ± 0.53 | 1030.87 ± 0.52 | 1026.23 ± 0.5 | 1018.44 ± 0.47 | 1012.05 ± 0.45
x1 = 0.8367 | 1044.36 ± 0.57 | 1039.31 ± 0.55 | 1034.64 ± 0.54 | 1026.87 ± 0.51 | 1020.56 ± 0.49
x1 = 0.8823 | 1053.64 ± 0.61 | 1048.53 ± 0.59 | 1043.84 ± 0.58 | 1036.07 ± 0.55 | 1029.88 ± 0.53
x1 = 0.9248 | 1062.23 ± 0.65 | 1057.07 ± 0.63 | 1052.35 ± 0.61 | 1044.62 ± 0.59 | 1038.5 ± 0.57
x1 = 0.9844 | 1073.74 ± 0.7 | 1068.51 ± 0.68 | 1063.75 ± 0.67 | 1056.05 ± 0.64 | 1050.07 ± 0.62

OCCN1CCOCC1 [4-morpholineethanol] + CCO
mass density [kg/m3]
Details | 293.15 K | 298.15 K | 303.15 K | 313.15 K | 323.15 K
x1 = 0.0543 | 820.46 ± 0.85 | 817.03 ± 0.86 | 812.82 ± 0.87 | 804.96 ± 0.89 | 794.75 ± 0.93
x1 = 0.1127 | 851.58 ± 0.76 | 847.96 ± 0.77 | 843.64 ± 0.78 | 835.77 ± 0.81 | 824.13 ± 0.84
x1 = 0.1873 | 886.91 ± 0.66 | 883.05 ± 0.67 | 878.64 ± 0.69 | 870.75 ± 0.71 | 857.23 ± 0.75
x1 = 0.2468 | 911.75 ± 0.6 | 907.72 ± 0.61 | 903.24 ± 0.62 | 895.37 ± 0.64 | 880.63 ± 0.69
x1 = 0.2874 | 927.58 ± 0.56 | 923.45 ± 0.57 | 918.93 ± 0.58 | 911.07 ± 0.6 | –
x1 = 0.3248 | 941.14 ± 0.52 | 936.91 ± 0.53 | 932.36 ± 0.55 | 924.52 ± 0.57 | –
x1 = 0.3873 | 961.89 ± 0.47 | 957.52 ± 0.48 | 952.92 ± 0.5 | 945.11 ± 0.52 | 927.56 ± 0.57
x1 = 0.4267 | 973.69 ± 0.44 | 969.23 ± 0.46 | 964.6 ± 0.5 | 956.83 ± 0.49 | 938.98 ± 0.54
x1 = 0.4882 | 990.98 ± 0.41 | 986.4 ± 0.4 | 981.73 ± 0.43 | 974 ± 1 | 955.56 ± 0.5
x1 = 0.5237 | 1000.12 ± 0.38 | 995.47 ± 0.39 | 990.79 ± 0.41 | 983.09 ± 0.43 | 964.48 ± 0.48
x1 = 0.5894 | 1015.56 ± 0.44 | 1010.8 ± 0.4 | 1006.1 ± 0.4 | 998.46 ± 0.39 | –
x1 = 0.6422 | 1026.73 ± 0.48 | 1021.89 ± 0.46 | 1017.17 ± 0.45 | 1009.59 ± 0.42 | –
x1 = 0.6899 | 1035.93 ± 0.51 | 1031.02 ± 0.5 | 1026.29 ± 0.48 | 1018.76 ± 0.46 | 1001.11 ± 0.4
x1 = 0.7439 | 1045.49 ± 0.56 | 1040.52 ± 0.54 | 1035.78 ± 0.52 | 1028.31 ± 0.5 | 1011.45 ± 0.44
x1 = 0.7855 | 1051.94 ± 0.59 | 1046.91 ± 0.57 | 1042.18 ± 0.55 | 1034.76 ± 0.53 | 1018.98 ± 0.47
x1 = 0.8238 | 1057.63 ± 0.61 | 1052.57 ± 0.59 | 1047.83 ± 0.58 | 1040.46 ± 0.55 | 1025.59 ± 0.5
x1 = 0.8841 | 1065.21 ± 0.65 | 1060.1 ± 0.6 | 1055.37 ± 0.62 | 1048.08 ± 0.59 | 1035.44 ± 0.55
x1 = 0.9247 | 1069.51 ± 0.67 | 1064.37 ± 0.66 | 1059.65 ± 0.64 | 1052.42 ± 0.61 | 1041.71 ± 0.58
x1 = 0.9544 | 1072.49 ± 0.69 | 1067.33 ± 0.67 | 1062.62 ± 0.66 | 1055.43 ± 0.63 | 1046.13 ± 0.6
x1 = 0.9844 | 1075.58 ± 0.71 | 1070.4 ± 0.7 | 1065.69 ± 0.67 | 1058.55 ± 0.65 | 1050.45 ± 0.62
